In US20140171438A1, “Hybrid Compounds And Methods Of Making And Using The Same” (CELLCEUTIX CORPORATION, priority 2012, published 2014):
Converted amounts (≈) assume the structure as drawn.

How the values were obtained:
Format in all cases: cell-based
[1] = system: E. Coli ATCC 25922; assay: Antimicrobial activity, MIC, modified microbroth dilution; conditions: Escherichia coli, ATCC25922; E. coli (25922); 18 hours incubation; read-out: MIC (expressed as MIC50) E. coli
Method: (§1) The compounds were screened for antimicrobial activity against a number of ATCC bacterial strains. Minimum Inhibitory Concentrations (MIC) of each of the compounds were determined using standard CLSI procedures modified by Hancock protocol against E. Coli ATCC 25922, Staphylococcus aureus ATCC 27660, Enterococcus faecalis ATCC 29212, Pseudomonas aeruginosa ATCC 10145, and Klebsiella pneumoniae ATCC 13883.
(§2) This procedure is a modification of the standard microbroth dilution assay recommended by the National Committee for Clinical Laboratory Standards (NCCLS) which has been developed for determining in vitro antimicrobial activities of cationic agents (Steinberg et al., Antimicrob. Agents Chemother., 1997, 41, 1738; and Yan et al., Antimicrob. Agents Chemother., 2001, 45, 1558). The modifications were made to minimize loss of the antimicrobial agent due to adsorption onto glass or plastic surfaces and by precipitation at high concentrations.
(§3) Three mL of Mueller-Hinton II Broth (cation-adjusted) was inoculated with 5 μL of frozen bacterial stock and incubated at 37° C. on a shaker platform (at 250 rpm) overnight. Compound stock solutions were prepared in DMSO and serial two-fold dilutions of compound were made in 0.01% acetic acid, 0.2% bovine serum albumin directly in the wells of the polypropylene plate at 10 μL/well. […] All samples were performed in duplicate. The overnight bacteria suspension was diluted to approximately 10^6 cfu/mL and inoculated into a polypropylene (Costar) 96-well round bottom plate (90 μL volumes). One set of control wells included broth-only samples with dilution buffer for testing sterility and providing blank values for the assay readings. Vehicle-control wells containing the bacterial suspension with DMSO (no compound) were also included. Following the overnight incubation (18 hours), cell growth was assessed by observing the presence of “acceptable growth”, defined by NCCLS as a ≧2 mm button or definite turbidity.
(§4) Actual results from a representative MIC assay are shown below in Table 1. Data is expressed as MIC50 in μg/mL. The bacterial isolates were as follows: E. coli (25922); S. aureus (27660); E. faecalis (29212); P. aeruginosa (10145); and K. pneumoniae (13883).

[2] = system: Enterococcus faecalis ATCC 29212; assay: as above; conditions: ATCC29212, E. faecalis (29212), 18 hours incubation, read-out: MIC (expressed as MIC50) E. faecalis
Method: as §1, §2, §3, §4

[3] = system: Staphylococcus aureus ATCC 27660; assay: as above; conditions: ATCC27660, S. aureus (27660), 18 hours incubation, read-out: MIC (expressed as MIC50) S. aureus
Method: as §1, §2, §3, §4

[4] = system: Pseudomonas aeruginosa ATCC 10145; assay: as above; conditions: ATCC10145, P. aeruginosa (10145), 18 hours incubation, read-out: MIC (expressed as MIC50) P. Aeruginosa
Method: as §1, §2, §3, §4

[5] = system: Klebsiella pneumoniae ATCC 13883; assay: as above; conditions: ATCC13883, K. pneumoniae (13883), 18 hours incubation, read-out: MIC (expressed as MIC50) K. Pnuemnoiae
Method: as §1, §2, §3, §4

[6] = Cytotoxicity, colorimetric tetrazolium assay; conditions: one hour with compound in serum-free media
Method: Cytotoxicity of the compounds was evaluated in a colorimetric assay using a transformed human liver cell line (HepG2, HB-8065) and an embryonic mouse cell line (NIH/3T3 cells, CRL-1658). This assay measures the bioreduction of a novel tetrazolium compound to a soluble formazan product by viable cells. HepG2 cells were seeded in 96 well plates at 2×10^4 cells/well in MEM medium with 10% fetal bovine serum (FBS) for 24 hours prior to use. NIH/3T3 cells were seeded in 96 well plates at 2×10^4 cells/well in DMEM medium with 10% bovine calf serum (BCS) 24 hours prior to use. Cell monolayers were rinsed in serum-free media and incubated for one hour with the compound in serum-free media. After incubation, the media was replaced with serum supplemented media and live cells were measured using the Cell Titer 96 Aqueous […] (Promega, Madison, Wis.). EC50 values were determined using a four parameter logistic equation: Y=Bottom+(Top−Bottom)/(1+10̂((Log EC50−X)*HillSlope)). Actual results from a representative cytotoxicity assay are shown below in Table 2. Data is expressed as EC50 in μg/mL.

[7] = mouse, NIH/3T3 cells (CRL-1658)

Row | MIC50 [1] | MIC50 [2] | MIC50 [3] | MIC50 [4] | MIC50 [5] | Structure (SMILES) | EC50 at 1 h ([6]; human, HepG2 cells (HB-8065)) | EC50 at 1 h [6, 7]
1 | 50 µg/mL (≈ 69.8 µM) | 50 µg/mL (≈ 69.8 µM) | 25 µg/mL (≈ 34.9 µM) | 50 µg/mL (≈ 69.8 µM) | 50 µg/mL (≈ 69.8 µM) | N=C(N)NCCCCC(=O)Nc1cc(C(F)(F)F)cc(NC(=O)Nc2ccc(Oc3cc([N+](=O)[O-])cc(C(F)(F)F)c3)cc2)c1SCCN [Compound 100, (4-(2-(2-aminoethylthio)-3-(3-(4-(3-(trifluoromethyl)-5-nitrophenoxy)phenyl)ureido)-5-(trifluoromethyl)phenylcarbamoyl)butyl)guanidine] | 396 µg/mL (≈ 553 µM) | 56.2 µg/mL (≈ 78.4 µM)
2 | 1.56 µg/mL (≈ 2.1 µM) | 0.78 µg/mL (≈ 1.05 µM) | 0.195 µg/mL (≈ 0.262 µM) | 3.13 µg/mL (≈ 4.21 µM) | 1.56 µg/mL (≈ 2.1 µM) | N=C(N)NCCCCC(=O)Nc1cc(C(F)(F)F)cc(NC(=O)Nc2ccc(Oc3cc(NCCCN)cc(C(F)(F)F)c3)cc2)c1SCCN [Compound 105, (4-(2-(2-aminoethylthio)-3-(3-(4-(3-(3-aminopropylamino)-5-(trifluoromethyl)phenoxy)phenyl)ureido)-5-(trifluoromethyl)phenylcarbamoyl)butyl)guanidine] | 40 µg/mL (≈ 53.8 µM) | 49.4 µg/mL (≈ 66.4 µM)
3 | 6.25 µg/mL (≈ 7.84 µM) | 1.56 µg/mL (≈ 1.96 µM) | 3.13 µg/mL (≈ 3.93 µM) | 12.5 µg/mL (≈ 15.7 µM) | 6.25 µg/mL (≈ 7.84 µM) | N=C(N)NCCCCC(=O)Nc1cc(C(F)(F)F)cc(NC(=O)Nc2ccc(Oc3ccc(NCCN)c(C(F)(F)F)c3)c(CCCN)c2)c1O[C@@H]1CCNC1 [Compound 109, N-[3-[[4-[4-(2-aminoethylamino)-3-(trifluoromethyl)phenoxy]-3-(3-aminopropyl)phenyl]carbamoylamino]-2-[(3R)-pyrrolidin-3-yl]oxy-5-(trifluoromethyl)phenyl]-5-guanidino-pentanamide] | 409 µg/mL (≈ 513 µM) | 256 µg/mL (≈ 321 µM)
4 | 3.13 µg/mL (≈ 3.12 µM) | 3.13 µg/mL (≈ 3.12 µM) | 0.195 µg/mL (≈ 0.195 µM) | 12.5 µg/mL (≈ 12.5 µM) | 3.13 µg/mL (≈ 3.12 µM) | N=C(N)NCCCCC(=O)Nc1cc(C(F)(F)F)cc(NC(=O)Nc2ccc3nc(NC(=O)Nc4cc(C(F)(F)F)cc(NC(=O)CCCCNC(=N)N)c4SCCN)sc3c2)c1SCCN [Compound 111, N-[2-(2-aminoethylsulfanyl)-3-[[2-[[2-(2-aminoethylsulfanyl)-3-(5-guanidinopentanoylamino)-5-(trifluoromethyl)phenyl]carbamoylamino]-1,3-benzothiazol-6-yl]carbamoylamino]-5-(trifluoromethyl)phenyl]-5-guanidino-pentanamide] | 54 µg/mL (≈ 53.9 µM) | 50.1 µg/mL (≈ 50 µM)

More lines, now with the values behind:

Row | Structure (SMILES) | MIC50 [1] | MIC50 [2] | MIC50 [3] | MIC50 [4] | MIC50 [5] | EC50 at 1 h ([6]; human, HepG2 cells (HB-8065)) | EC50 at 1 h [6, 7]
5 | N=C(N)NCCCCC(=O)Nc1cc(C(F)(F)F)cc(NC(=O)Nc2ccc(Oc3cc(NCCN)cc(C(F)(F)F)c3)cc2)c1O[C@@H]1CCNC1 [Compound 104] | 3.13 µg/mL (≈ 4.23 µM) | 3.13 µg/mL (≈ 4.23 µM) | 0.049 µg/mL (≈ 0.0662 µM) | 6.25 µg/mL (≈ 8.45 µM) | 3.13 µg/mL (≈ 4.23 µM) | 148 µg/mL (≈ 200 µM) | 82.7 µg/mL (≈ 112 µM)
6 | N=C(N)NCCCCC(=O)Nc1cc(C(F)(F)F)cc(NC(=O)Nc2ccc(Oc3ccc(NCCN)c(C(F)(F)F)c3)c(CCCN)c2)c1SCCN [Compound 108, N-[3-[[4-[4-(2-aminoethylamino)-3-(trifluoromethyl)phenoxy]-3-(3-aminopropyl)phenyl]carbamoylamino]-2-(2-aminoethylsulfanyl)-5-(trifluoromethyl)phenyl]-5-guanidino-pentanamide] | 3.13 µg/mL (≈ 3.98 µM) | 1.56 µg/mL (≈ 1.98 µM) | 3.13 µg/mL (≈ 3.98 µM) | 6.25 µg/mL (≈ 7.94 µM) | 3.13 µg/mL (≈ 3.98 µM) | 395 µg/mL (≈ 502 µM) | 186 µg/mL (≈ 236 µM)
7 | N=C(N)NCCCCC(=O)Nc1cc(C(F)(F)F)cc(NC(=O)Nc2cccc(Oc3cc(NC(=N)N)cc(C(F)(F)F)c3)c2)c1O[C@@H]1CCNC1 [Compound 116, 5-guanidino-N-[3-[[3-[3-guanidino-5-(trifluoromethyl)phenoxy]phenyl]carbamoylamino]-2-[(3R)-pyrrolidin-3-yl]oxy-5-(trifluoromethyl)phenyl]pentanamide] | 3.13 µg/mL (≈ 4.24 µM) | 12.5 µg/mL (≈ 16.9 µM) | 0.39 µg/mL (≈ 0.528 µM) | 6.25 µg/mL (≈ 8.46 µM) | 12.5 µg/mL (≈ 16.9 µM) | – | –
8 | N=C(N)NCCCCC(=O)Nc1cc(C(F)(F)F)cc(NC(=O)Nc2ccc3nc(NC(=O)Nc4cc(C(F)(F)F)cc(NC(=O)CCCCNC(=N)N)c4O[C@@H]4CCNC4)sc3c2)c1O[C@@H]1CCNC1 [Compound 112, 5-guanidino-N-[3-[[2-[[3-(5-guanidinopentanoylamino)-2-[(3R)-pyrrolidin-3-yl]oxy-5-(trifluoromethyl)phenyl]carbamoylamino]-1,3-benzothiazol-6-yl]carbamoylamino]-2-[(3R)-pyrrolidin-3-yl]oxy-5-(trifluoromethyl)phenyl]pentanamide] | 1.56 µg/mL (≈ 1.53 µM) | 1.56 µg/mL (≈ 1.53 µM) | 0.098 µg/mL (≈ 0.0959 µM) | 25 µg/mL (≈ 24.5 µM) | 3.13 µg/mL (≈ 3.06 µM) | 105 µg/mL (≈ 103 µM) | 52.5 µg/mL (≈ 51.4 µM)
9 | N=C(N)NCCCCC(=O)Nc1cc(C(F)(F)F)cc(NC(=O)Nc2cccc(Oc3cc(NCCCN)cc(C(F)(F)F)c3)c2)c1SCCN [Compound 117] | 1.56 µg/mL (≈ 2.1 µM) | 3.13 µg/mL (≈ 4.21 µM) | 0.39 µg/mL (≈ 0.524 µM) | 6.25 µg/mL (≈ 8.4 µM) | 3.13 µg/mL (≈ 4.21 µM) | – | –
10 | N=C(N)NCCCCC(=O)Nc1cc(C(F)(F)F)cc(NC(=O)Nc2cccc(Oc3cc(NC(=N)N)cc(C(F)(F)F)c3)c2)c1SCCN [Compound 107, N-[2-(2-aminoethylsulfanyl)-3-[[3-[3-guanidino-5-(trifluoromethyl)phenoxy]phenyl]carbamoylamino]-5-(trifluoromethyl)phenyl]-5-guanidino-pentanamide] | 3.13 µg/mL (≈ 4.3 µM) | 12.5 µg/mL (≈ 17.2 µM) | 0.39 µg/mL (≈ 0.535 µM) | 6.25 µg/mL (≈ 8.58 µM) | 12.5 µg/mL (≈ 17.2 µM) | – | –
11 | N=C(N)NCCCCC(=O)Nc1cc(C(F)(F)F)cc(NC(=O)Nc2ccc(Oc3cc(N)cc(C(F)(F)F)c3)cc2)c1O[C@@H]1CCNC1 [Compound 103, (4-(2-((R)-pyrrolidin-3-yloxy)-3-(3-(4-(3-amino-5-(trifluoromethyl)phenoxy)phenyl)ureido)-5-(trifluoromethyl)phenylcarbamoyl)butyl)guanidine] | 3.13 µg/mL (≈ 4.49 µM) | 12.5 µg/mL (≈ 17.9 µM) | 0.78 µg/mL (≈ 1.12 µM) | 12.5 µg/mL (≈ 17.9 µM) | 12.5 µg/mL (≈ 17.9 µM) | – | –
12 | N=C(N)NCCCCC(=O)Nc1cc(C(F)(F)F)cc(NC(=O)Nc2cccc(Oc3cc(NCCCN)cc(C(F)(F)F)c3)c2)c1O[C@@H]1CCNC1 [Compound 118, N-[3-[[3-[3-(3-aminopropylamino)-5-(trifluoromethyl)phenoxy]phenyl]carbamoylamino]-2-[(3R)-pyrrolidin-3-yl]oxy-5-(trifluoromethyl)phenyl]-5-guanidino-pentanamide] | 3.13 µg/mL (≈ 4.15 µM) | 3.13 µg/mL (≈ 4.15 µM) | 0.195 µg/mL (≈ 0.259 µM) | 6.25 µg/mL (≈ 8.29 µM) | 3.13 µg/mL (≈ 4.15 µM) | – | –
